{"source": "paper PMC11596563", "about": "“N-Aryl Benzimidazole and Benzotriazole Derivatives and Their Hybrids as Cytotoxic Agents: Design, Synthesis and Structure–Activity Relationship Studies” (Molecules, 2024)", "key": {"A549": {"test_system": "A549", "assay": "MTT test, cytotoxic effect", "format": "cell-based", "settings": "Homo sapiens, 24 h treatment, 0.1 to 100 µM, concentration that causes 50% cell death", "description": "(§1) At the first stage of biological testing, we studied the effect of the synthesized compounds on the survival of cells of both tumoral and normal origin. […] In our work, the cytotoxic profile of the synthesized molecules was assessed using the MTT test, based on the ability of a colorless tetrazolium salt (3-[4,5-dimethylthiazol-2-yl]-2,5-diphenyltetrazolium bromide, MTT) to be reduced to colored formazan in the presence of the mitochondrial enzymes of living cells. For this purpose, a number of cell lines of tumoral origin (SH-SY5Y, A549, MCF-7 and SW-480), as well as normal origin (Hek-293), were used.\n(§2) For the experiments, we used tumor cell cultures SH-SY5Y, human neuroblast-like cells, A549, human lung adenocarcinoma, MCF-7, human mammary adenocarcinoma, SW-480 and human colorectal adenocarcinoma, as well as cells of normal origin obtained from human embryonic kidneys, Hek-293.\n(§3) All cells were cultured in the Dulbecco Modified Eagle’s Medium (DMEM) with a high glucose content, 10% fetal bovine serum and 1% penicillin-streptomycin as an antibiotic, in a moist incubator with 5% CO2 at 37°C.\n(§4) To measure cellular metabolic activity, a colorimetric analysis was performed using the MTT reagent (3-(4,5–dimethylthiazol-2-yl)-2,5-diphenyltetrazolium bromide), which is an inhibitor of viable cells [73, 74].\n(§5) • Briefly, cells in the logarithmic growth phase were digested and resuspended to adjust the cell density. The cells were then seeded in 96-well plates at a density of 10,000 cells per well. After 24 h of the incubation of the cells under the standard conditions described above (for the purpose of cell adhesion), the cells were treated with the synthesized compounds at different concentrations (0.1 to 100 µM) or a vehicle alone as a control (1% DMSO) for 24 h. After the incubation time of the cells with synthesized compounds, 5 mg/mL of MTT was added to the cells and incubated for 2 h at 37 °C. Next, the supernatant was discarded; after that, the formazan crystals were dissolved in a DMSO and the absorbance of each well was measured at 570 nm using a multifunctional microplate reader, Cytation3 (Biotech Tools Inc., Winooski, USA)."}, "[1]": {"test_system": "Fe(II)-induced lipid peroxidation (LPO) of rat brain homogenate", "assay": "Fe(II)-induced lipid peroxidation, modified TBARS test", "format": "biochemical", "settings": "Fe(II) 500 μM, rat brain homogenate 2 mg/mL; for IC50: 1 to 300 μM, read-out: IC50 of the lipid peroxidation inhibitory effect; for decrease in the level of malondialdehyde: compounds at 100 μM", "protocol": "In our work, the antioxidant status of the compounds was determined by their ability to influence the process of Fe(II)-induced lipid peroxidation (LPO) of rat brain homogenate (2 mg/mL). The effect of the substances on LPO was studied using a modified version of the TBA test in a plate format. This test is based on the reaction of 2-thiobarbituric acid with intermediate LPO products, resulting in the formation of a colored trimethine complex, the main role in the formation of which belongs to malondialdehyde. […] This was expressed in a decrease in the level of malondialdehyde in the system by 70, 79 and 71%, respectively, tending to the values of the well-known antioxidant Trolox. Additionally, the IC50 values of the lipid peroxidation inhibitory effect were calculated for these molecules, the values of which are presented in Figure 2B.\nTo obtain rat brain homogenate, an animal previously anesthetized in a CO2 chamber was decapitated using a guillotine. The brain was homogenized in a buffer containing KCl (120 mM) and HEPES (20 mM), pH = 7.4 at 4 ° C and centrifuged at 1500 g to obtain a supernatant.\nThe intensity of the lipid peroxidation of the rat brain homogenate was evaluated using a modified TBARS test. […] In the wells of the negative control, the Fe(II) was replaced with water; in samples with a positive control, a solvent was introduced instead of the studied compounds.\nAt the end of incubation, a TBA reagent ([…] thiobartituric and 1% trichloroacetic acids dissolved in 0.25 N HCl) was added to each well and heated at 90 °C for 90 min."}, "SW-480": {"test_system": "SW-480", "assay": "MTT test, cytotoxic effect", "format": "cell-based", "settings": "Homo sapiens, SW480, 24 h treatment, 0.1 to 100 µM, concentration that causes 50% cell death", "description": "as §1, §2, §3, §4, §5"}, "A549 cells": {"test_system": "A549 cells", "assay": "Wound-healing assay (scratch test)", "format": "cell-based, human", "settings": "1 μM; for migration capacity, decrease in the scratch width vs control: 24 h after the damage", "from_the_text": "It is also well known that migration and proliferation of cancer cells are key processes involved in the metastatic cascade of malignant neoplasms. In turn, the ability of therapeutic agents to inhibit these processes is considered a promising property of antitumor agents. In this regard, in order to assess the possible antimetastatic potential of cytotoxic diphenylamines 6b, c and d, we analyzed the effect of the substances on the migration and proliferation of tumor cells A549 in a scratch test.\nBased on a preliminary series of experiments, 1 μM was chosen as the concentration used in this test, excluding the intrinsic cytotoxic effect of the substances. […] Thus, the data obtained 24 h after the damage was applied allowed us to evaluate the migration capacity of the cells, minimizing the contribution of cell proliferation.\nThe migration activity of A549 cells was determined by the wound-healing assay (scratch test). To do this, cells (15,000 cells per well) were seeded in a 96-well plate and cultured under the standard conditions described above. After 24 h of incubation, when the cells became 90% confluent, the medium was selected and an identical scratch wound across the center of each well was made by a 200 µL pipette tip.\nTo remove detached cells, the cell monolayer was washed twice with PBS; after that, the growth media and test compounds at 1 µM (or 1% DMSO as a solvent) were added to each well. A phase contrast microscope at a ×40 magnification was used to take photomicrographs after making the wound and then 24 h, 48 h and 72 h later.\nThe analysis of the obtained images was calculated using the open-source program ImageJ [80] and a special module: Wound_healing_size_tool."}, "[2]": {"assay": "MTT test, cytotoxic effect on cells of normal origin", "format": "cell-based, human", "settings": "human, Hek-293 cells (normal origin), 24 h treatment, 0.1 to 100 µM, normal cells, concentration that causes 50% cell death", "description": "as §1, §2, §3, §4, §5"}, "MCF-7": {"test_system": "MCF-7", "assay": "MTT test, cytotoxic effect", "format": "cell-based", "settings": "Homo sapiens, MCF7, 24 h treatment, 0.1 to 100 µM, concentration that causes 50% cell death", "description": "as §1, §2, §3, §4, §5"}, "SH-SY5Y": {"test_system": "SH-SY5Y", "assay": "cells", "settings": "Homo sapiens, 24 h, read-out: IC50 of the cytotoxic effect, SH-SY5Y", "description": "as §1, §2, §3, §4, §5"}, "[3]": {"assay": "MTT test, summary over all tested cell lines", "format": "cell-based, human", "settings": "human; all cells, including those of normal origin, Hek-293; read-out: IC50 values of the cytotoxic effect, range over all cells", "description": "as §1\n(§6) For the experiments, we used tumor cell cultures SH-SY5Y, human neuroblast-like cells, A549, human lung adenocarcinoma, MCF-7, human mammary adenocarcinoma, SW-480 and human colorectal adenocarcinoma, as well as cells of normal origin obtained from human embryonic kidneys, Hek-293. The cell lines were obtained from the collection of the Institute of Cytology, Russian Academy of Sciences (St. Petersburg, Russia).\nas §3, §4\n(§7) • Briefly, cells in the logarithmic growth phase were digested and resuspended to adjust the cell density. The cells were then seeded in 96-well plates at a density of 10,000 cells per well. […] Next, the supernatant was discarded; after that, the formazan crystals were dissolved in a DMSO and the absorbance of each well was measured at 570 nm using a multifunctional microplate reader, Cytation3 (Biotech Tools Inc., Winooski, USA)."}, "[4]": {"test_system": "all the tested cell lines (SH-SY5Y, A549, MCF-7, SW-480, Hek-293)", "assay": "MTT test, summary over all tested cell lines", "format": "cell-based, human", "settings": "MTT, range of concentrations studied (0.1 to 100 µM)", "description": "as §1, §6, §3, §4, §7"}}}
{"compound": "Nc1cc(C(F)(F)F)ccc1Nc1cc(Cl)ccc1-n1nnc2ccccc21", "note": "[6d, N-[2-(1H-benzotriazol-1-yl)-5-chlorophenyl]-2-amino-4-(trifluoromethyl)aniline]", "values": [{"measurement": "IC50", "setting": "A549", "result": "41.4 ± 0.79", "unit": "µM"}, {"measurement": "IC50", "setting": "[1]", "result": "2.4 ± 0.05", "unit": "µM"}, {"measurement": "decrease in the level of malondialdehyde", "setting": "[1]", "result": 71, "unit": "%"}, {"measurement": "IC50", "setting": "SW-480", "result": "40.38 ± 0.01", "unit": "µM"}, {"measurement": "migration capacity, decrease in the scratch width vs control", "setting": "A549 cells", "result": "did not find any differences"}, {"measurement": "IC50 at 24 h", "setting": "[2]", "result": "41.39 ± 0.05", "unit": "µM"}, {"measurement": "melting point", "result": "191 to 194", "unit": "°C"}, {"measurement": "IC50", "setting": "MCF-7", "result": "33.8 ± 0.64", "unit": "µM"}, {"measurement": "IC50", "setting": "SH-SY5Y", "result": "31.56 ± 0.07", "unit": "µM"}, {"measurement": "IC50 at 24 h", "setting": "[3]", "result": "31 to 41", "unit": "µM"}]}
{"compound": "Nc1cc(C(F)(F)F)ccc1Nc1cc(C(F)(F)F)ccc1-n1cnc2ccccc21", "note": "[6a, N-[2-(1H-benzimidazol-1-yl)-5-(trifluoromethyl)phenyl]-2-amino-4-(trifluoromethyl)aniline]", "values": [{"measurement": "IC50", "setting": "A549", "result": "≥ 100", "unit": "µM"}, {"measurement": "IC50", "setting": "SW-480", "result": "≥ 100", "unit": "µM"}, {"measurement": "IC50 at 24 h", "setting": "[2]", "result": "≥ 100", "unit": "µM"}, {"measurement": "melting point", "result": "205 to 207", "unit": "°C"}, {"measurement": "IC50", "setting": "MCF-7", "result": "≥ 100", "unit": "µM"}, {"measurement": "IC50", "setting": "SH-SY5Y", "result": "≥ 100", "unit": "µM"}, {"measurement": "toxic effect on the tested cell lines", "setting": "[4]", "result": "not toxic"}]}
{"compound": "Nc1cc(C(F)(F)F)ccc1Nc1cc(C(F)(F)F)ccc1-n1nnc2ccccc21", "note": "[6b, N-[2-(1H-benzotriazol-1-yl)-5-(trifluoromethyl)phenyl]-2-amino-4-(trifluoromethyl)aniline]", "values": [{"measurement": "IC50", "setting": "A549", "result": "26.28 ± 0.02", "unit": "µM"}, {"measurement": "IC50", "setting": "[1]", "result": "1.68 ± 0.08", "unit": "µM"}, {"measurement": "decrease in the level of malondialdehyde", "setting": "[1]", "result": 70, "unit": "%"}, {"measurement": "IC50", "setting": "SW-480", "result": "25.09 ± 0.24", "unit": "µM"}, {"measurement": "unhealed defect area remaining from the original vs control", "setting": "A549 cells; 48 and 72 h", "result": "significantly increase"}, {"measurement": "migration capacity, decrease in the scratch width vs control", "setting": "A549 cells", "result": "did not find any differences"}, {"measurement": "proliferation coefficient of cells vs control", "setting": "A549 cells; A549", "result": "significant decrease"}, {"measurement": "IC50 at 24 h", "setting": "[2]", "result": "22.4 ± 0.41", "unit": "µM"}, {"measurement": "melting point", "result": "170 to 173", "unit": "°C"}, {"measurement": "IC50", "setting": "MCF-7", "result": "23.29 ± 0.12", "unit": "µM"}, {"measurement": "IC50", "setting": "SH-SY5Y", "result": "25.98 ± 0.17", "unit": "µM"}, {"measurement": "IC50 at 24 h", "setting": "[3]", "result": "22 to 26", "unit": "µM"}]}
